Data: patent publication US20130090377A1, “COMPOSITION COMPRISING COUMESTROL OR A BEAN EXTRACT CONTAINING COUMESTROL” (AMOREPACIFIC CORPORATION, priority 2010, published 2013)

Legend:
SIRT1 = target: T1, SIRT1 (Homo sapiens, UniProt Q96EB6); experiment: SIRT1 activity assay kit (Biomol), SIRT1 activating effect; type: biochemical; settings: FIG. 1
T1 construct: Biomol
T1 sequence (Q96EB6 1-747): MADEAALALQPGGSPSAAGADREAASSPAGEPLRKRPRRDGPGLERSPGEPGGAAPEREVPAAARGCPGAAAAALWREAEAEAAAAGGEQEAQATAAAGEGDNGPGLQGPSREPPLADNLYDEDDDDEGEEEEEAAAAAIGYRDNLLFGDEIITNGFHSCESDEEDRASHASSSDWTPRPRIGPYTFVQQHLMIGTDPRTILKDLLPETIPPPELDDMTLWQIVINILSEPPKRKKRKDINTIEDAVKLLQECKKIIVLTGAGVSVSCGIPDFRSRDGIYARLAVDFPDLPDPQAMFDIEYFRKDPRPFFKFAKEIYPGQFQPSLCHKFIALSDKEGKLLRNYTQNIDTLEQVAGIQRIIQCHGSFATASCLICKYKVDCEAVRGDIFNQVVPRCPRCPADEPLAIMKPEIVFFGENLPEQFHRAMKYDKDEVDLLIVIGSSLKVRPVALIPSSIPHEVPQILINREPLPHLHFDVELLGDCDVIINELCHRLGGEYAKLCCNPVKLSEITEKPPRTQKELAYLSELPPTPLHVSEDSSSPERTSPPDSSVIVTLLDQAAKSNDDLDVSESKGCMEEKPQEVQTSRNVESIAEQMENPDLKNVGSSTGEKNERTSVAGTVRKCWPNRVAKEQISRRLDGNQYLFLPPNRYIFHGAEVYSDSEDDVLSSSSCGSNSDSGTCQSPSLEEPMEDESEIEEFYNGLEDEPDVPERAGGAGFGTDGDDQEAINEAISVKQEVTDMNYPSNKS
Experimental: It was tested whether coumestrol can activate SIRT1 using the SIRT1 activity assay kit (Biomol). Cells were treated with 10 μM coumestrol. 50 µM resveratrol (Res), which is known to activate SIRT1, was used as positive control and 1 mM nicotinamide (NAM), which is an inhibitor of SIRT1, was used as negative control.

C2C12 muscle cells [1] = experiment: Expression of mitochondria-associated genes at the protein level by western blotting in differentiated C2C12 muscle cells; type: cell-based, mouse; parameters: dose or concentration left out as unconfirmed; settings: coumestrol for 24 hours, C2C12 differentiated for a week, FIG. 2
Experimental: (§1) C2C12 muscle cells derived from mouse (mouse myoblasts, ATCC) were differentiated for a week and then treated with […] coumestrol for 24 hours. Then, the expression of mitochondria-associated genes was confirmed at the protein level by western blotting. The tested genes were PGC1 which induces mitochondria biosynthesis and NDUFA9 and ATP5a which are proteins that constitute the mitochondrial electron transport chain.

C2C12 muscle cells [2] = experiment: Quantity of mitochondria in cells by fluorescence after MitoTracker Green staining; type: cell-based, mouse; settings: coumestrol-treated C2C12 muscle cells, FIG. 3
Experimental: as §1
Also, the quantity of mitochondria in cells was measured by fluorescence after staining with MitoTracker Green (Invitrogen).

- SIRT1 activating effect compared with resveratrol (positive control) (SIRT1; 10 μM coumestrol vs 50 µM resveratrol): comparable to that of resveratrol
- SIRT1 activity relative to the untreated group (SIRT1; 10 μM coumestrol): increased
Structure (SMILES): O=c1oc2cc(O)ccc2c2oc3cc(O)ccc3c12 [coumestrol, 3,9-dihydroxy-6H-benzofuro(3,2-c)(1)benzopyran-6-one]
- expression of mitochondria-associated genes (PGC1, NDUFA9, ATP5a) at the protein level vs untreated group (C2C12 muscle cells [1]): remarkable increase
- quantity of mitochondria in cells vs untreated group (C2C12 muscle cells [2]): remarkable increase
